Experimental data reported in article PMC3996911 (Molecular cell, 2014).

How the values were obtained:
PPX = biological target: T1, PPX (Escherichia coli, UniProt P0AFL6); test: specific activity after incubation with N-chlorotaurine; format: biochemical; details: covalent (oxidation of Cys169 and, to a lesser extent, Cys85)
T1 sequence (P0AFL6 2-513): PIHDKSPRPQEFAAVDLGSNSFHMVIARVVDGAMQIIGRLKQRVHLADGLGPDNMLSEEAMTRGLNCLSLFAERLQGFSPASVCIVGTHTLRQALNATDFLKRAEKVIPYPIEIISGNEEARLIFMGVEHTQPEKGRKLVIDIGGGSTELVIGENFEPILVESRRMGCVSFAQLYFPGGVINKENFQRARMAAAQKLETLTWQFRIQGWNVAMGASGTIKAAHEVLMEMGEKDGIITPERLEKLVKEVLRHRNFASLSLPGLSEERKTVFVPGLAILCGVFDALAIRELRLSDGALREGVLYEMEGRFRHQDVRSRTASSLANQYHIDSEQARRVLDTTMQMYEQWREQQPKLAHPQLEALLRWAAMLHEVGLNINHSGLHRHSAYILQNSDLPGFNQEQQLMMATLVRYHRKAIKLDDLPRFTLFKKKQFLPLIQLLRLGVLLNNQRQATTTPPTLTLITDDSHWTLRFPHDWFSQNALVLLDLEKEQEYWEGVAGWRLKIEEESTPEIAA

PPK = PPK (Escherichia coli, UniProt P0A7B1)
Chain of PPK (P0A7B1 2-688): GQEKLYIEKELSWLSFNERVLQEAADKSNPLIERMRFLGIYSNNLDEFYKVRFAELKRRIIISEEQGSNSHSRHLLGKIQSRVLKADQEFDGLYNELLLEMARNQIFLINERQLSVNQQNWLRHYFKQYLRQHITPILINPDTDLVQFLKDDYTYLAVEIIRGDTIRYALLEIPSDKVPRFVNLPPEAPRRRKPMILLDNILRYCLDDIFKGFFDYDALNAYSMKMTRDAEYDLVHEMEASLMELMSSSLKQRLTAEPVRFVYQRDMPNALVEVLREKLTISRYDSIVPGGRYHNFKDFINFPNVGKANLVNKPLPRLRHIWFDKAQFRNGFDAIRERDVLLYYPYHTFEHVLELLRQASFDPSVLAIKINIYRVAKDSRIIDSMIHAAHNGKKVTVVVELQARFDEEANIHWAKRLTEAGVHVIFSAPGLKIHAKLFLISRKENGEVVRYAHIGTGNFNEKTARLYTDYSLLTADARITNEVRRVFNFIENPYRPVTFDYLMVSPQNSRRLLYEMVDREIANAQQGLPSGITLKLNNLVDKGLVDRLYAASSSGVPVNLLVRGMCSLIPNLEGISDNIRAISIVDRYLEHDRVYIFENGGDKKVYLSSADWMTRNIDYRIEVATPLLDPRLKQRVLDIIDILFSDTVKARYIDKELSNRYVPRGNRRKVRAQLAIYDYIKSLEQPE

Row | SMILES | specific activity after incubation with N-chlorotaurine (PPX) | specific activity, forward reaction (polyP synthesis) (PPK)
1 | O=S(=O)(O)CCNCl [N-chlorotaurine] | Purified PPX proved to be highly sensitive to inactivation by N-chlorotaurine | 
2 | Nc1ncnc2c1ncn2[C@@H]1O[C@H](COP(=O)(O)OP(=O)(O)OP(=O)(O)O)[C@@H](O)[C@H]1O [ATP] |  | Specific activity of PPK’s forward and reverse reactions (see Figure 1C)
